# In patent US20250002954A1, “Novel Compound, Use Thereof, and Method for Producing Same, and Compound-Containing Composition, Method for Producing 4-Trehalosamine, and Microorganism” (Microbial Chemistry Research Foundation, priority 2021, published 2025):
# What was measured:
# blood glucose level = test: Change in blood glucose level after oral administration to mice; format: in vivo, ICR mice; conditions: single oral dose 0.5 mg per g of body weight, fasted
# Protocol: 4-trehalosamine or trehalose dissolved in saline at 0.5 mg/10 μL per g of body weight was orally administered in a single dose to ICR mice (9-week to 10-week old, female, n=5) that had been fasted overnight. The five mice on which the same treatment had been performed were placed in the same cage.
# In a 96-well plate, the centrifuged supernatant sample of dilution of blood with methanol prepared in <Determination of blood level of 4-trehalosamine> (a sample similar to the sample used in the LC-MS analysis) was placed at 5 µL/well and dried by suction with a vacuum pump. After that, it was dissolved in 25 μL of water, 75 μL of Glucose assay reagent (manufactured by Sigma-Aldrich) was added, and the solution was left to stand at 37° C. for 1 hour. Absorbance at 340 nm was then measured with a plate reader Cytation 5 (manufactured by Bio Tek Instruments) and the amount of glucose estimated.
# [1] = system: aggregated proteins Q74 and SynA53T in SH-SY5Y cells and NH-12 cells; test: Elimination effect on aggregated protein in cells (Q74, SynA53T); format: cell-based, human; conditions: 100 mM 4-trehalosamine, 70 μM IMCTA-C14 or 100 mM trehalose, 14 hours; SH-SY5Y and NH-12 cells
# Protocol: The effect of 4-trehalosamine or trehalose analog on Q74, which is partial peptide of huntingtin (Htt), the causal protein of Huntington's disease, and SynA53T, which is a mutation of α-synuclein, the causal protein of Parkinson's disease, (both aggregated proteins) was determined in the following manner.
# Neuroblastoma cells SH-SY5Y (obtained from European Collection of Authenticated Cell Cultures (ECACC)) and human neuroblastoma cells NH-12 (obtained from RIKEN BRC) were each inoculated at 14×10^4 cells/mL and cultured in DMEM culture medium at 37° C. for 48 hours.
# After the culture of SH-SY5Y cells and NH-12 cells, pEGFP-Q74 vector or EGFP-alphasynuclein-A53T (both obtained from addgene), which are expression vectors of aggregated protein, were transfected with transfection reagent (Viafect, manufactured by Promega). After 24 hours from the transfection, 100 mM 4-trehalosamine, 70 μM IMCTA-C14, or 100 mM trehalose was added and the cells were further treated for 14 hours. Untreated cells without addition of the compounds were used as control. After washing the cells three times with PBS, hyposmotic fluid (solution of one tablet of cOmplete, Mini, EDTA-free Protease Inhibitor Cocktail (CM, manufactured by Merck) in 50 mL of pure water) was added and the mixture was shaken on ice for 10 minutes. It was then centrifuged at 21,300×g for 10 minutes to be separated into soluble protein (Sol) and aggregated protein (Agg) […]. Thereafter, they were turned into samples for western blotting in a similar manner to test example 10-1.
# The western blotting was performed in a similar manner to test example 4 except that anti-GFP antibody (manufactured by Proteintech) was used at 1/5,000 dilution and anti-LC3 antibody (manufactured by Cell Signaling Technology) was used at 1/2,000 dilution as the primary antibodies in the method described in test example 4. The results for neuroblastoma cells SH-SY5Y are shown in FIGS. 22A and 22B, and the results for human neuroblastoma cells NH-12 are shown in FIGS. 22C and 22D. […]
# [2] = system: trehalase derived from pig kidney; test: Degradation by trehalase derived from pig kidney (glucose release); format: in vitro ADME; conditions: 0.01 mM to 10 mM substrate, 0.24 units/mL, pH 5.7, 37° C., 20 minutes
# Protocol: Trehalose (TRH) or the 4-trehalosamine (4TA) from the <Purification process> of production example 10 was added to and mixed with 135 mM sodium citrate buffer solution (pH 5.7) so that the final concentration was 0 mM, 0.01 mM, 0.1 mM, 1 mM, or 10 mM. Into them, trehalase derived from pig kidney (0.24 units/mL, manufactured by Sigma-Aldrich) was added and left to react at 37° C. for 20 minutes. Into the solution after reaction, a triple amount of Glucose assay reagent (manufactured by Sigma-Aldrich) was added and left to react at room temperature for 15 minutes. After that, absorbance at 340 nm was measured with a plate reader Cytation 5 (manufactured by Bio Tek Instruments) and the amount of glucose released as degradation product was estimated. FIG. 19B is a zoomed-in view of FIG. 19A.
Structure (SMILES),change in blood glucose level (blood glucose level),aggregate of Q74 and aggregate of SynA53T [1],degradation by pig trehalase (release of glucose) [2]
"OC[C@H]1O[C@H](O[C@H]2O[C@H](CO)[C@@H](O)[C@H](O)[C@H]2O)[C@H](O)[C@@H](O)[C@@H]1O [trehalose, reference compound]",elevation in the blood glucose level was observed 30 minutes to 1 hour after administration,significantly decreased,degraded in this reaction and release of glucose was observed
N[C@H]1[C@H](O)[C@@H](O)[C@@H](O[C@H]2O[C@H](CO)[C@@H](O)[C@H](O)[C@H]2O)O[C@@H]1CO [4-trehalosamine],no elevation in the blood glucose level was observed,significantly decreased,not degraded by pig trehalase
